Experimental data published in patent publication US20220184164A1, “PREPARATIONS CONTAINING BERRY EXTRACTS FOR USE IN THE PROPHYLAXIS AND/OR TREATMENT OF VIRAL INFECTIONS CAUSED BY HERPESVIRIDAE” (Evonik Operations GmbH, priority 2019, published 2022).

Assays:
[1] = system: HSV-1 related intracellular β-Amyloid deposition in SH-SY5Y (neuroblastoma) cells; assay: β-Amyloid assay: intracellular deposition of β-Amyloid in HHV-1-infected SH-SY5Y cells (immunofluorescence, qualitative); assay type: cell-based; conditions: 500, 250 and 125 μg/ml
Procedure: Samples were fixed using Histofix and permeabilized with 0.05% Triton X-100 in phosphate-buffered saline for 5 min. Blocking steps were performed with 3% bovine serum albumin for 1 h followed by primary antibody incubation with rabbit polyclonal anti-beta amyloid 1-42 and polyclonal goat anti-green fluorescent protein. Antibodies were diluted 1:100 and 1:1000, respectively, and were incubated overnight. To visualize β-Amyloid antibodies, donkey anti-rabbit AlexaFluor® 555 secondary antibodies were used (diluted 1:400); to detect the GFP antibodies donkey anti-goat AlexaFluor® 647 secondary antibodies (diluted 1:400) were used. The samples were then mounted in Fluoromount-G™ with DAPI and analyzed with the BZ-9000 BIOREVO System (Keyence).
Herpes virus infections and specifically HSV-1 infections are correlated to intracellular R-Amyloid and tau-protein deposition in cells of the CNS in progression of Alzheimer's disease. […] Therefore, in a first step the infectability of SH-SYSY neuroblastoma cells with HHV-1 was tested. After incubation of SH-SYSY cultures with HHV-1 (MOI=8), an infection rate of >90% (qualitatively) was detected that came along with high intracellular β-Amyloid deposition.

HSV-1 = assay: Anti-viral assay: GFP-encoding HSV-1 infection of pre-treated BHK cells, infected cells counted; assay type: cell-based, herpes simplex virus 1
Procedure: (§1) BHK cells were incubated with decreasing concentration of the solubilized test compounds for approx. 1 h. All concentrations were analyzed by six independent replicates on a black 96-well plate (PerkinElmer). Cells were infected with GFP-encoding wildtype HSV-1 virus and incubated for two days. Two days after infection, HSV-1-infected cells and GFP expressing cells were directly counted using the PerkinElmer Ensight system with optical cell culture plates. The instrument was controlled by […]. Anti-viral assays for HHV8 and mCMV were performed accordingly.
The cells were subsequently infected with GFP-encoding HSV at a multiplicity of infection of 2.5, and infected GFP-expressing cells were counted one day after infection using the PerkinElmer Ensight system. […] Thus, the sugar is not required as potential co-factor for drug uptake.

HHV-8 = assay: Anti-viral assay: GFP-encoding HHV-8 infection, infected cells counted; assay type: cell-based, Herpes virus 8
Procedure: as §1
The concentrations of materials were again adjusted to the same levels of anthocyanins (except the single berry extracts). No treatment or only maltodextrin served as controls. The cells were subsequently infected with GFP-encoding HHV-8, and infected GFP-expressing cells were counted two days after infection using the PerkinElmer Ensight system.

maltodextrin
infected and β-Amyloid-positive cells [1]: HHV-1-infected cells were mostly β-Amyloid-positive

COc1cc(-c2[o+]c3cc(O)cc(O)c3cc2O[C@@H]2O[C@H](CO)[C@@H](O)[C@H](O)[C@H]2O)cc(O)c1O [Pet3G, Petunidin 3-glucoside]
inhibition of HSV-1 by single anthocyanins (HSV-1): Neither C3G nor D3Gal or Pet3G inhibited HSV-1

OC[C@H]1OC(Oc2cc3c(O)cc(O)cc3[o+]c2-c2cc(O)c(O)c(O)c2)[C@H](O)C(O)C1O (stereo partly drawn) [D3G, Delphinidin 3-glucoside]
inhibition of HSV-1 by single anthocyanins (HSV-1): decreased viral infectivity like Healthberry® 865
viral inhibition of HHV-8 (in words) (HHV-8): identified as an active ingredient in Healthberry® 865

OC[C@H]1O[C@@H](Oc2cc3c(O)cc(O)cc3[o+]c2-c2ccc(O)c(O)c2)[C@H](O)[C@@H](O)[C@@H]1O [C3G, Cyanidin 3-glucoside]
inhibition of HSV-1 by single anthocyanins (HSV-1): Neither C3G nor D3Gal or Pet3G inhibited HSV-1

OC[C@H]1O[C@@H](Oc2cc3c(O)cc(O)cc3[o+]c2-c2cc(O)c(O)c(O)c2)[C@H](O)[C@@H](O)[C@H]1O [D3Gal, Delphinidin 3-galactoside]
inhibition of HSV-1 by single anthocyanins (HSV-1): Neither C3G nor D3Gal or Pet3G inhibited HSV-1
